From ChEMBL document CHEMBL3826953, “Development of Autotaxin Inhibitors: An Overview of the Patent and Primary Literature” (J Med Chem, 2016)
Each block holds one compound with its values, some of them ahead of it.

Key:
Autotaxin [1] = target: T1, Autotaxin (Homo sapiens, UniProt Q13822); test: Inhibition of recombinant ATX in human Hep3B cells using lysophosphatidylcholine as substrate preincubated for 15 mins followed by substrate addition measured after 1.5 to 3 hrs by choline release assay; format: cell-based, Hep 3B2
Autotaxin [2] = target: Autotaxin (Rattus norvegicus, UniProt Q64610); test: Inhibition of ATX in rat plasma assessed as inhibition of LPA production after 2 hrs by LC-MS/MS analysis; format: cell-free
Autotaxin [3] = target: T2, Autotaxin (Mus musculus, UniProt Q9R1E6); test: Inhibition of ATX in mouse plasma assessed as inhibition of LPA production after 2 hrs by LC-MS/MS analysis; format: cell-free
Autotaxin [4] = target: T2, Autotaxin; test: Inhibition of recombinant mouse ATX using lysophosphatidylcholine as substrate by choline release assay
[5] = Half life in human; format: ADME, organism-based; details: in vivo
Autotaxin [6] = target: T1, Autotaxin; test: Inhibition of recombinant human C-terminal His-tagged ATX expressed in HEK293E cells using lysophosphatidylcholine as substrate preincubated with enzyme followed by substrate addition measured after 1 hr by AmplexRed dye based fluorescence assay
Autotaxin [7] = target: T1, Autotaxin; details: 10 uM
Description: Inhibition of recombinant human ATX at 10 uM using lysophosphatidylcholine (14:0) as substrate measured after 2 hrs by AmplexRed dye based fluorescence assay relative to control

Autotaxin [8] = target: T1, Autotaxin; test: Inhibition of recombinant human ATX using CPF4 as substrate measured after 3 hrs by fluorescence assay
[9] = Effective half life in Lewis rat at 1 mg/kg, iv measured up to 24 hrs by LC-MS/MS analysis; format: ADME, organism-based; details: in vivo, read-out: t1/2eff (converted)
[10] = Clearance in Lewis rat at 1 mg/kg, iv measured up to 24 hrs by LC-MS/MS analysis; format: ADME, organism-based; details: in vivo
[11] = Oral bioavailability in Lewis rat at 1 to 100 mg/kg administered through gavage measured up to 24 hrs by LC-MS/MS analysis; format: ADME, organism-based; details: in vivo
Rattus norvegicus [12] = test: In vivo inhibition of ATX in Lewis rat air pouch model of inflammation assessed as inhibition of carrageenan-induced LPA production in plasma at 100 mg/kg, po administered through gavage 1 hr before carrageenan injection measured after 3 hrs by LC-MS/MS analysis relative to control; format: functional
Rattus norvegicus [13] = test: In vivo inhibition of ATX in Lewis rat air pouch model of inflammation assessed as inhibition of carrageenan-induced LPA production in pouch fluid at 100 mg/kg, po administered through gavage 1 hr before carrageenan injection measured after 3 hrs by LC-MS/MS analysis relative to control; format: functional
[14] = Plasma concentration in Lewis rat air pouch model of inflammation at 3 mg/kg, po administered through gavage 1 hr before carrageenan injection measured after 3 hrs by LC-MS/MS analysis relative to control; format: ADME, organism-based
[15] = Plasma concentration in Lewis rat air pouch model of inflammation at 100 mg/kg, po administered through gavage 1 hr before carrageenan injection measured after 3 hrs by LC-MS/MS analysis relative to control; format: ADME, organism-based
Autotaxin [16] = target: T1, Autotaxin; test: Inhibition of recombinant human C-terminal V5/His6-tagged ATX expressed in HEK293 cells assessed as residual activity at 1 uM using oleoyl-lysophosphatidylcholine as substrate incubated for 16 hrs by choline release assay relative to control
Autotaxin [17] = target: T1, Autotaxin; test: Inhibition of recombinant human C-terminal V5/His6-tagged ATX expressed in HEK293 cells assessed as residual activity at 10 uM using oleoyl-lysophosphatidylcholine as substrate incubated for 16 hrs by choline release assay relative to control
Autotaxin [18] = target: T1, Autotaxin; test: Inhibition of recombinant human C-terminal V5/His6-tagged ATX expressed in HEK293 cells assessed as residual activity at 100 uM using oleoyl-lysophosphatidylcholine as substrate incubated for 16 hrs by choline release assay relative to control
Autotaxin [19] = target: T1, Autotaxin; test: Inhibition of recombinant human C-terminal V5/His6-tagged ATX expressed in HEK293 cells assessed as choline release at 0.5 uM using oleoyl-lysophosphatidylcholine as substrate incubated for 18 hrs by non-linear regression analysis
Autotaxin [20] = target: T1, Autotaxin; test: Inhibition of recombinant human C-terminal V5/His6-tagged ATX expressed in HEK293 cells assessed as choline release at 0.5 uM using oleoyl-lysophosphatidylcholine as substrate incubated for 18 hrs by linear regression analysis
Autotaxin [21] = target: T1, Autotaxin; test: Inhibition of recombinant ATX in human […] cells using lysophosphatidylcholine as substrate preincubated for 15 mins followed by substrate addition measured after 90 mins by choline release assay; format: cell-based
Autotaxin [22] = target: T1, Autotaxin; test: Inhibition of recombinant ATX in human MDA-MB-435 cells at 10 uM using FS3 as substrate fluorescence assay relative to control; format: cell-based
Autotaxin [23] = target: T1, Autotaxin; test: Inhibition of human recombinant ATX using FS3 as substrate incubated for 30 mins by fluorescence assay
Autotaxin [24] = target: T1, Autotaxin; test: Inhibition of human recombinant ATX using FS3 as substrate incubated for 2 hrs by fluorescence assay
Autotaxin [25] = target: T1, Autotaxin; test: Mixed-type inhibition of human recombinant ATX using FS3 as substrate assessed as enzyme-substrate-inhibitor complex incubated for 2 hrs by Michaelis-Menten equation analysis
Autotaxin [26] = target: T1, Autotaxin; test: Mixed-type inhibition of human recombinant ATX using FS3 as substrate assessed as enzyme-inhibitor complex incubated for 2 hrs by Michaelis-Menten equation analysis
Autotaxin [27] = target: T1, Autotaxin; test: Inhibition of recombinant ATX (unknown origin) expressed in baculovirus infected Hi5 cells using L-alpha-lysophosphatidylcholine as substrate preincubated for 30 mins followed by substrate addition measured after 90 mins by AmplexRed dye based fluorescence plate reader analysis; details: BTI-TN-5B1-4

IC50 (Autotaxin [1]): < 500 nM
SMILES: N#C/C(=C\c1nn(Cc2ccc(F)cc2)c2cc(Cl)ccc12)c1ccc(C(=O)O)cc1

IC50 (Autotaxin [6]): < 1.7 nM
SMILES: O=C(c1cc(-c2cnn[nH]2)ccn1)N1CCc2nc(NC3Cc4ccccc4C3)ncc2C1

IC50 (Autotaxin [23]): 2.59 nM
SMILES: O=C(CCc1nc2ccccc2s1)N1CCc2ncnc(Cc3ccc(F)cc3)c2C1

The remaining lines, values behind:

SMILES: CCc1nc2c(C)cc(N3CCN(CC(=O)N4CC(O)C4)CC3)cn2c1N(C)c1nc(-c2ccc(F)cc2)c(C#N)s1 [ZIRITAXESTAT]
IC50 (Autotaxin [2]): ≥ 500 nM | IC50 (Autotaxin [3]): ≥ 500 nM | IC50 (Autotaxin [4]): 224 nM | half-life [5]: 5 h

SMILES: O=C(Nc1cccc(F)c1)c1cc(S(=O)(=O)N2CCOCC2)c(Cl)cc1Cl
inhibition (Autotaxin [7]): 41% | IC50 (Autotaxin [8]): 31.4 nM

SMILES: O=C(CCN1CCN(C(=O)OCc2cc(Cl)cc(Cl)c2)CC1)c1ccc2[nH]c(=O)oc2c1
half-life [9]: 1.2 h | clearance [10]: 31 mL/min/kg | bioavailability [11]: 43% | inhibition in vivo at 100 mg/kg (Rattus norvegicus [12]): ≤ 95% | inhibition in vivo at 100 mg/kg (Rattus norvegicus [13]): ≤ 95% | concentration at 3 h [14]: 79 nM | concentration at 3 h [15]: 2680 nM

SMILES: CCCCCCCCCCCCCCCC(=O)N[C@@H](Cc1ccc(OCc2ncc(C)c(OC)c2C)cc1)[C@@H](O)CP(=O)(O)O
Activity (Autotaxin [16]): 27% | Activity (Autotaxin [17]): 13% | Activity (Autotaxin [18]): 6% | Ki (Autotaxin [19]): 1300 nM | Ki (Autotaxin [20]): 390 nM

SMILES: Cc1c(Sc2cccc(C(=O)O)n2)c2ccc(Cl)cc2n1-c1cnn(C)c1
IC50 (Autotaxin [21]): < 300 nM

SMILES: CCn1cc(C(=O)O)c(=O)c2cnc(N3CCN(C(=S)NCc4cc(Cl)cc(Cl)c4)CC3)nc21
inhibition (Autotaxin [22]): 0%

SMILES: CCCCCCCCCCCCCCc1ccc(CP(=O)(O)O)cc1
IC50 (Autotaxin [24]): 170 nM | Ki (Autotaxin [25]): 280 nM | Ki (Autotaxin [26]): 270 nM

SMILES: O=C(OCc1cc(Cl)cc(Cl)c1)N1CCC(N2CCN(C(=O)c3ccc4[nH]c(=O)oc4c3)CC2)CC1
INH (Autotaxin [27]): < 1 µM
